Assay results taken from article PMC12316891, “A bottom-up approach to find lead compounds in expansive chemical spaces” (Communications Chemistry, 2025).
Like-named read-outs stand apart in the source and are kept apart here.

How the values were obtained:
His6-BRD4 (BD1) = target: T1, His6-BRD4 (BD1) (Homo sapiens, UniProt O60885); experiment: Surface plasmon resonance (SPR) single-dose screening; format: binding; set-up: key to SPR RESULT: Positive: compounds were considered as SPR hits also when their average signal was further than two standard deviations apart from the average signal of the blank samples (1% DMSO); conditions: for RUs at [10 µM]: SPR, compound 10 µM, 1% DMSO, n = 2, decimal comma; for SPR RESULT: single dose 10 µM, n = 2
T1 construct: A pET28 plasmid containing residues 44–168 of BRD4 (BD1), a 6xHis tag, a TEV protease cleavage site; made in house; host or cells: E. coli Rosetta (D3)

BRD4 (BD1) [1] = target: T2, BRD4 (BD1) (Homo sapiens, UniProt O60885); experiment: Differential scanning fluorimetry (DSF) single-dose thermal shift screening; format: binding; conditions: for ΔTm at 10 µM: read-out: ΔTm ºC at [10 µM]
T2 construct: A pET28 plasmid containing residues 44–168 of BRD4 (BD1), a 6xHis tag, a TEV protease cleavage site; 6xHis (N, cleaved yes); made in house; host or cells: E. coli Rosetta (D3)

BRD4 (BD1) [2] = target: T2, BRD4 (BD1); experiment: Competitive HTRF TR-FRET binding assay (displacement of acetylated histone H4 peptide); conditions: 16-point titration 0.1 nM to 10 µM, n = 2, Negative = curve could not be fitted to a sigmoidal curve; for IC50: read-out: TR-FRET IC50
Protocol: To further quantitatively characterize the DSF/SPR hits compounds obtained in the single-dose screenings, we selected HTRF TR-FRET. Specifically, we employed a competitive HTRF TR-FRET experiment to measure the compound’s capacity to displace an acetylated peptide from the binding site of BRD4 (BD1). For each molecule, a 16-point concentration curve was titrated against the peptide-BRD (BD1) complex and incubated for 1.5 h. A compound was considered a positive binder if we could fit its titration curve to a sigmoidal curve to determine its IC50. […] Compound screening was carried out in 384-well, white, round-bottom, small-volume plates (CORNING) in a final volume of 20 µL of 50 mM HEPES (pH 7.4), 50 mM NaCl, 400 mM KF, 0.5 mM CHAPS, and 0.05% BSA. […] Then, the labeled anti-His6-XL665 antibody (CisBio) (10 nM) was added to the mixture and incubated for 15 min, before the Eu3+ cryptate-conjugated streptavidin (2 nM) (CisBio) was added and incubated for 15 min. All incubations were performed at room temperature. […] Titration of (+)−JQ1 was used as a positive control for each experiment.

[3] = DSF, compound 10 µM, BRD4 (BD1) 2 µM, n = 3, decimal comma

SMILES	RUs at [10 µM] (His6-BRD4 (BD1))	ΔTm at 10 µM (BRD4 (BD1) [1]) [°C]	ΔTm ºC at [10 µM] (BRD4 (BD1) [1]; [3])	SPR RESULT (His6-BRD4 (BD1))	TR-FRET IC50 (nM) (BRD4 (BD1) [2])	ΔTm at 10 µM (BRD4 (BD1) [1]; [3]) [°C]	IC50 (BRD4 (BD1) [2]) [nM]
COc1cc2c(cc1-c1c(C)noc1C)ncc1[nH]c(=O)n([C@H](C)c3ccccn3)c12 [Compound 2, CC1=C(C(=NO1)C)C2=C(C=C3C(=C2)N=CC4=C3N(C(=O)N4)C(C)C5=CC=CC=N5)OC, reference compound]	95,35 ± 25,76 RUs	–	–	–	–	–	–
Cc1sc2c(c1C)C(c1ccc(Cl)cc1)=NC(CC(=O)OC(C)(C)C)c1nnc(C)n1-2 (stereo not drawn) [Compound 3, CC1=C(SC2=C1C(=NC(C3=NN=C(N32)C)CC(=O)OC(C)(C)C)C4=CC=C(C=C4)Cl)C, reference compound]	99,15 ± 6,82 RUs	9.28	–	–	–	–	–
COc1ccc(-n2c(C)nnc2SCC(=O)Nc2ccc(C)c(Cl)c2Cl)cc1 [Compound 12, COC=1C=CC(=CC1)N2C(C)=NN=C2SCC(=O)NC=3C=CC(C)=C(Cl)C3Cl]	78,35 ± 18,49 RUs	–	-0,57 ± 0,38 ºC	Positive	Negative	–	–
Cn1ccnc1C1CCN(C(=O)c2nn(C)c(=O)c3ccccc23)C1 (stereo not drawn) [Compound 13, CN1C=CN=C1C2CCN(C2)C(=O)C3=NN(C)C(=O)C=4C=CC=CC34]	5,53 ± 2,74 RUs	–	–	Negative	–	0.45	1.46
COc1ccc(NS(=O)(=O)c2cc(C(=O)Nc3ccc4nnc(C(C)C)n4c3)ccc2F)cc1 [Compound 14, COC=1C=CC(NS(=O)(=O)C=2C=C(C=CC2F)C(=O)NC=3C=CC4=NN=C(C(C)C)N4C3)=CC1]	23,29 ± 9,67 RUs	–	–	Negative	–	1.94	661
COc1ccc2c(c1)N(C(=O)c1cn(C)c(=O)c3ccccc13)CC2 [Compound 15, COC=1C=CC=2CCN(C(=O)C3=CN(C)C(=O)C=4C=CC=CC34)C2C1]	28,19 ± 22,85 RUs	–	–	Negative	–	1.71	1010
CCCc1c(C(=O)NCc2cccc3c2OCCO3)[nH]c(C)c1C(C)=O [Compound 16, CCCC1=C(NC(C)=C1C(=O)C)C(=O)NCC=2C=CC=C3OCCOC23]	20,24 ± 10,15 RUs	–	–	Negative	–	-0.43	1090
COc1ccc(-n2c(C)nnc2SCC(=O)Nc2cn(C)nc2C(N)=O)cc1 [Compound 17, COC=1C=CC(=CC1)N2C(C)=NN=C2SCC(=O)NC3=CN(C)N=C3C(=O)N]	9,07 ± 0,52 RUs	–	–	Positive	–	1.17	192
COc1ccc(C2(NCC(=O)Nc3cc(-n4nnnc4C)ccc3F)CCOCC2)cc1 [Compound 18, COC=1C=CC(=CC1)C2(CCOCC2)NCC(=O)NC=3C=C(C=CC3F)N4N=NN=C4C]	2,91 ± 1,98 RUs	–	–	Negative	–	-0.7	1140
COc1ccc(-n2c(C)nnc2SCC(=O)NCc2ccc(F)c(C)c2)cc1 [Compound 19, COC=1C=CC(=CC1)N2C(C)=NN=C2SCC(=O)NCC=3C=CC(F)=C(C)C3]	33,98 ± 20,29 RUs	–	–	Negative	–	1.36	543
Cc1ccc(CNC(=O)c2ccc3nnc(C)c(C)c3c2)c(OC2CCOC2)c1 (stereo not drawn) [Compound 20, CC=1C=CC(CNC(=O)C=2C=CC=3N=NC(C)=C(C)C3C2)=C(OC4CCOC4)C1]	41,88 ± 12,55 RUs	–	–	Positive	Negative	2.33	–
CCOc1ccc(-n2nc(Cc3ccncc3)nc2-c2cn(C)c(=O)c3ccccc23)cc1 [Compound 21, CCOC=1C=CC(=CC1)N2N=C(CC=3C=CN=CC3)N=C2C4=CN(C)C(=O)C=5C=CC=CC45]	38,73 ± 19,2 RUs	–	–	Negative	–	2.33	552
CCCc1c(C(=O)N2CCOC(Cn3cc(-c4ccsc4)nn3)C2)[nH]c(C)c1C(C)=O (stereo not drawn) [Compound 22, CCCC1=C(NC(C)=C1C(=O)C)C(=O)N2CCOC(CN3C=C(N=N3)C=4C=CSC4)C2]	20,06 ± 0,43 RUs	–	–	Positive	–	2.02	46
CC(C)=CC(=O)NCCC1CCN(C(=O)c2cn(C)c(=O)c3ccccc23)C1 (stereo not drawn) [Compound 23, CC(=CC(=O)NCCC1CCN(C1)C(=O)C2=CN(C)C(=O)C=3C=CC=CC23)C]	5,93 ± 1,05 RUs	–	–	Negative	–	2.61	3.44
